{
  "source": "patent US10357483B2",
  "about": "“Methods comprising dosing combinations for reducing undesired humoral immune responses” (Selecta Biosciences, Inc., priority 2013, dated 2019)",
  "molecules": {"B1": {"name": "pOVA: immunogenic form of particulate Ovalbumin (protein, UniProt P01012 2-386, looked up)", "Ovalbumin": "GSIGAASMEFCFDVFKELKVHHANENIFYCPIAIMSALAMVYLGAKDSTRTQINKVVRFDKLPGFGDSIEAQCGTSVNVHSSLRDILNQITKPNDVYSFSLASRLYAEERYPILPEYLQCVKELYRGGLEPINFQTAADQARELINSWVESQTNGIIRNVLQPSSVDSQTAMVLVNAIVFKGLWEKAFKDEDTQAMPFRVTEQESKPVQMMYQIGLFRVASMASEKMKILELPFASGTMSMLVLLPDEVSGLEQLESIINFEKLTEWTSSNVMEERKIKVYLPRMKMEEKYNLTSVLMAMGITDVFSSSANLSGISSAESLKISQAVHAAHAEINEAGREVVGSAEAGVDAASVSEEFRADHPFLFCIKHIATNAVLFFGRCVSP", "modifications": "particulate form", "notes": "immunogenic form of particulate Ovalbumin"}},
  "key": {"[1]": {"tested_on": "C57BL/6", "assay": "Anti-HUMIRA antibody titers in blood", "type": "in vivo, mice", "details": "day 21; 60 μg HUMIRA s.c. weekly; 0.9 mg nanocarrier admixed on day 0 only", "description": "Control C57BL/6 age-matched (5-6 weeks) females were injected subcutaneously (s.c.) in the front limbs with 60 μg of HUMIRA once a week until day 29 (on d0, 7, 14, 22, 29, across all groups and conditions). […] The results presented in FIG. 3A show the antibody titers in the blood of all animals at day 21. […] At day 29, the animals received another challenge in one hind limb (a further second dosing) while the other hind limb received saline in order to test the local antibody-mediated type I hypersensitivity response. For this, the thickness of the hind limbs were measured with the help of a caliper one hour after the injection."}, "[2]": {"tested_on": "huTNFaTg", "assay": "Arthritis scores of limbs in arthritic animals (Example 9)", "type": "in vivo, mice", "details": "60 μg HUMIRA s.c. weekly, weeks 5 to 15 of age; 0.87 mg nanocarriers with first 7 injections", "description": "(§1) Transgenic animals overexpressing human tumor necrosis factor alpha (huTNFaTg) develop progressive rheumatoid arthritis over the course of 20 weeks from birth. This process can be prevented by using the fully human anti-human TNFα antibody HUMIRA/adalimumab. However, repetitive administration of the initial therapeutic dose of HUMIRA (60 μg) leads to anti-drug antibody formation (ADA) that neutralizes the therapeutic benefit. Only very high doses can then maintain the therapeutic benefit and surmount the neutralizing immune response. For example, it is thought that about 200 μg is needed to effect maximal inhibition of inflammation in an example of such a mouse model (Binder et al., Arthritis & Rheumatism, Vol. 65 (No. 3), March 2013, pp. 608-617).\n(§2) The results in FIG. 9A show the antibody titers in the blood of all animals at day 21."}, "[3]": {"tested_on": "huTNFaTg", "details": "such a mouse model; Binder et al. 2013; cited from earlier work"}, "[4]": {"tested_on": "HuTNFαTg", "assay": "Anti-HUMIRA antibody titers in arthritic animals (Example 14)", "type": "in vivo", "details": "HUMIRA s.c. weekly weeks 5-10; 0.87 mg nanoparticles with 60 μg Humira for first 3 injections", "description": "Anti-HUMIRA immune and neutralizing responses in arthritic animals were evaluated. Transgenic animals overexpressing human tumor necrosis factor alpha (huTNFαTg) develop progressive rheumatoid arthritis over the course of 20 weeks from birth. This process can be prevented by using the fully human anti-human TNFα antibody Adalimumab or HUMIRA. However repetitive administration of the initial therapeutic dose of HUMIRA (60 μg) leads to anti-drug antibody formation (ADA) that neutralizes the therapeutic benefit. Higher quantities of Humira (200 μg can be injected to overcome this antagonizing immune response to allow for the therapeutic effect of Humira. Age-matched HuTNFαTg 5 week old female animals were either injected s.c. in the subscapular area with saline (PBS) or 60 μg or 200 μg of HUMIRA weekly (weeks 5-10) or with a mixture of 60 μg of Humira and 0.87 mg of tolerogenic nanoparticles (first dosings) for the first 3 injections (week 5 to 7 of age) followed by 3 weekly injections of HUMIRA alone (same amounts) (second dosings) (weeks 8 to 10 of age). The results in FIG. 11 (left panel) show the antibody titers in the blood of all animals at different time points. […] FIG. 12 illustrates the dosing regimen."}, "[5]": {"tested_on": "HuTNFαTg", "assay": "Arthritis scores of limbs in arthritic animals (Example 14)", "type": "in vivo", "details": "HUMIRA s.c. weekly weeks 5-10; nanocarriers with first 3 injections", "description": "Age-matched HuTNFαTg 5 week old female animals were either injected s.c. in the subscapular area with saline (PBS) or 60 μg or 200 μg of HUMIRA weekly (weeks 5-10) or with a mixture of 60 μg of Humira and 0.87 mg of tolerogenic nanoparticles (first dosings) for the first 3 injections (week 5 to 7 of age) followed by 3 weekly injections of HUMIRA alone (same amounts) (second dosings) (weeks 8 to 10 of age). The results in FIG. 11 (left panel) show the antibody titers in the blood of all animals at different time points. […] FIG. 12 illustrates the dosing regimen."}, "[6]": {"tested_on": "huTNFaTg", "assay": "Anti-HUMIRA antibody titers in arthritic animals (Example 9)", "type": "in vivo, mice", "details": "60 μg HUMIRA s.c. weekly; 0.87 mg nanocarriers with first 7 injections; FIG. 9A day 21", "description": "as §1, §2"}, "[7]": {"tested_on": "C57BL/6", "assay": "Anti-KRYSTEXXA IgM antibody titers", "type": "in vivo, mice", "details": "0.9 mg nanocarriers + 40 μg KRYSTEXXA i.v. days −21 and −14; then 100 μg KRYSTEXXA + 20 μg CpG s.c. day 0 to 28", "description": "All animals received weekly injections from day 0 to day 28 of 100 μg of KRYSTEXXA combined with 20 μg of CpG s.c. in the hind limb (d0, 7, 12, 28)."}, "[8]": {"tested_on": "C57BL/6", "assay": "Anti-OVA and anti-KLH IgG antibody titers (Example 7)", "type": "in vivo, mice", "details": "day 54; pOVA 2.5 μg i.v. weekly; 0.2 mg nanocarriers admixed days 0, 7, 14", "description": "The control group of C57BL/6 age-matched (5-6 weeks) female were injected i.v. in the tail vein with 2.5 μg of an immunogenic form of particulate Ovalbumin (pOVA) and 2 μg of Keyhole Limpet Hemocyanin (KLH) s.c. in the hind limb once a week for 49 days (d0, 7, 14, 20, 28, 35, 42, 49)."}},
  "data": [
    {"molecule": "adalimumab [HUMIRA]", "values": [
      {"measurement": "anti-HUMIRA antibody titers", "setting": "[1]", "value": "robust antibody response against HUMIRA"},
      {"measurement": "arthritis scores (disease progression)", "setting": "[2]", "value": "significant blockade of the disease progression"},
      {"measurement": "dose needed to effect maximal inhibition of inflammation", "setting": "[3]", "value": "about 200 μg"},
      {"measurement": "anti-HUMIRA antibody titers", "setting": "[4]", "value": "robust anti-HUMIRA antibody response"},
      {"measurement": "arthritis scores (disease progression)", "setting": "[5]", "value": "significant blockade of the disease progression"},
      {"measurement": "anti-HUMIRA antibody titers", "setting": "[6]", "value": "robust antibody response"}
    ]},
    {"molecule": "pegloticase [KRYSTEXXA]", "values": [
      {"measurement": "anti-KRYSTEXXA IgM antibody titers", "setting": "[7]", "value": "develop an immune response against KRYSTEXXA"}
    ]},
    {"molecule": "B1", "values": [
      {"measurement": "anti-OVA IgG antibody titers", "setting": "[8]", "value": "robust immune response against OVA and KLH"}
    ]}
  ]
}
